# Patent US10167262B2, “Herbicidal substituted 3-arylpyrazoles” (FMC CORPORATION, priority 2014, dated 2019)
# Key:
# Assay in all cases: Test E pre-/postemergence greenhouse test, plant response rating 0-100
# Type in all cases: in vivo
# [1] = test system: Brazilian crabgrass (Digitaria horizontalis); settings: Digitaria horizontalis, post-emergence, Postemergence, scale 0 to 100, read-out: Plant response rating, Crabgrass, Brazil
# Outline: (§1)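 Sow seeds in silt loam and treat preemergence; at the same time, spray postemergence on 1- to 4-leaf plants in peat/vermiculite mix. Use a non-phytotoxic solvent plus surfactant as carrier. Hold 14–21 days in greenhouse, then score visually 0–100 against controls.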
# [2] = test system: arrowleaf sida (Sida rhombifolia); settings: Sida rhombifolia, post-emergence, Postemergence, scale 0 to 100
# Outline: as §1
# corn (Zea mays) = settings: Zea mays, post-emergence, Postemergence, scale 0 to 100
# Outline: as §1
# [3] = test system: dayflower (Virginia (VA) dayflower, Commelina virginica); settings: Commelina virginica, post-emergence, Postemergence, scale 0 to 100
# Outline: as §1
# [4] = test system: fall panicum (Panicum dichotomiflorum); settings: Panicum dichotomiflorum, post-emergence, Postemergence, scale 0 to 100
# Outline: as §1
# [5] = test system: field bindweed (Convolvulus arvensis); settings: Convolvulus arvensis, post-emergence, Postemergence, scale 0 to 100
# Outline: as §1
# [6] = test system: hairy beggarticks (Bidens pilosa); settings: Bidens pilosa, post-emergence, Postemergence, scale 0 to 100
# Outline: as §1
# [7] = test system: palmer pigweed (Amaranthus palmeri); settings: Amaranthus palmeri, post-emergence, Postemergence, scale 0 to 100
# Outline: as §1
# [8] = test system: sandbur (southern sandbur, Cenchrus echinatus); settings: Cenchrus echinatus, post-emergence, Postemergence, scale 0 to 100
# Outline: as §1
# soybean (Glycine max) = settings: Glycine max, post-emergence, Postemergence, scale 0 to 100
# Outline: as §1
# [9] = test system: waterhemp (common waterhemp, Amaranthus rudis); settings: Amaranthus tuberculatus, post-emergence, Postemergence, scale 0 to 100
# Outline: as §1
# [10] = test system: wild poinsettia (Euphorbia heterophylla); settings: Euphorbia heterophylla, post-emergence, Postemergence, scale 0 to 100, read-out: Plant response rating, Poinsettia, Wild
# Outline: as §1
structure (smiles),measurement,setting,value
"Clc1cc(Cl)cc(-c2n[nH]cc2C(=NN2CCCC2)c2ccccc2)c1 [Compound 30, N-[[3-(3,5-dichlorophenyl)-1H-pyrazol-4-yl]phenylmethylene]-1-pyrrolidinamine]",pest or weed control at 16 g/ha,[1]; 16 g ai/ha,0%
same,pest or weed control at 31 g/ha,[1]; 31 g ai/ha,0%
same,pest or weed control at 62 g/ha,[1]; 62 g ai/ha,0%
same,pest or weed control at 125 g/ha,[1]; 125 g ai/ha,0%
same,pest or weed control at 250 g/ha,[1]; 250 g ai/ha,0%
same,pest or weed control at 16 g/ha,[2]; 16 g ai/ha,50%
same,pest or weed control at 31 g/ha,[2]; 31 g ai/ha,50%
same,pest or weed control at 62 g/ha,[2]; 62 g ai/ha,70%
same,pest or weed control at 125 g/ha,[2]; 125 g ai/ha,80%
same,pest or weed control at 250 g/ha,[2]; 250 g ai/ha,80%
same,"Corn plant response rating (crop injury, 0 = no effect, 100 = complete kill) at 16 g/ha",corn (Zea mays); 16 g ai/ha,0%
same,"Corn plant response rating (crop injury, 0 = no effect, 100 = complete kill) at 31 g/ha",corn (Zea mays); 31 g ai/ha,0%
same,"Corn plant response rating (crop injury, 0 = no effect, 100 = complete kill) at 62 g/ha",corn (Zea mays); 62 g ai/ha,0%
same,"Corn plant response rating (crop injury, 0 = no effect, 100 = complete kill) at 125 g/ha",corn (Zea mays); 125 g ai/ha,0%
same,"Corn plant response rating (crop injury, 0 = no effect, 100 = complete kill) at 250 g/ha",corn (Zea mays); 250 g ai/ha,0%
same,pest or weed control at 16 g/ha,[3]; 16 g ai/ha,0%
same,pest or weed control at 31 g/ha,[3]; 31 g ai/ha,0%
same,pest or weed control at 62 g/ha,[3]; 62 g ai/ha,0%
same,pest or weed control at 125 g/ha,[3]; 125 g ai/ha,0%
same,pest or weed control at 250 g/ha,[3]; 250 g ai/ha,0%
same,pest or weed control at 31 g/ha,[4]; 31 g ai/ha,0%
same,pest or weed control at 62 g/ha,[4]; 62 g ai/ha,0%
same,pest or weed control at 125 g/ha,[4]; 125 g ai/ha,0%
same,pest or weed control at 250 g/ha,[4]; 250 g ai/ha,0%
same,pest or weed control at 16 g/ha,[5]; 16 g ai/ha,0%
same,pest or weed control at 31 g/ha,[5]; 31 g ai/ha,0%
same,pest or weed control at 62 g/ha,[5]; 62 g ai/ha,0%
same,pest or weed control at 125 g/ha,[5]; 125 g ai/ha,0%
same,pest or weed control at 250 g/ha,[5]; 250 g ai/ha,0%
same,pest or weed control at 16 g/ha,[6]; 16 g ai/ha,80%
same,pest or weed control at 125 g/ha,[6]; 125 g ai/ha,85%
same,pest or weed control at 250 g/ha,[6]; 250 g ai/ha,100%
same,pest or weed control at 31 g/ha,[7]; 31 g ai/ha,40%
same,pest or weed control at 62 g/ha,[7]; 62 g ai/ha,100%
same,pest or weed control at 125 g/ha,[7]; 125 g ai/ha,100%
same,pest or weed control at 250 g/ha,[7]; 250 g ai/ha,100%
same,pest or weed control at 31 g/ha,[8]; 31 g ai/ha,0%
same,pest or weed control at 62 g/ha,[8]; 62 g ai/ha,0%
same,pest or weed control at 125 g/ha,[8]; 125 g ai/ha,0%
same,pest or weed control at 250 g/ha,[8]; 250 g ai/ha,0%
same,plant injury at 31 g/ha,soybean (Glycine max); 31 g ai/ha,0%
same,plant injury at 62 g/ha,soybean (Glycine max); 62 g ai/ha,0%
same,plant injury at 125 g/ha,soybean (Glycine max); 125 g ai/ha,0%
same,plant injury at 250 g/ha,soybean (Glycine max); 250 g ai/ha,0%
same,pest or weed control at 31 g/ha,[9]; 31 g ai/ha,60%
same,pest or weed control at 62 g/ha,[9]; 62 g ai/ha,70%
same,pest or weed control at 125 g/ha,[9]; 125 g ai/ha,70%
same,pest or weed control at 250 g/ha,[9]; 250 g ai/ha,75%
same,pest or weed control at 31 g/ha,[10]; 31 g ai/ha,0%
same,pest or weed control at 62 g/ha,[10]; 62 g ai/ha,0%
same,pest or weed control at 125 g/ha,[10]; 125 g ai/ha,0%
same,pest or weed control at 250 g/ha,[10]; 250 g ai/ha,0%
